# Results published in patent US20060078961A1, “Systems and methods for rapidly changing the solution environment around sensors” (priority 2002, published 2006).
# Test system: PC-12 cell
# Conditions: flow rate 3.24 mm/s, scanning speed 250 μm/s
# Source text: The flow rate was 3.24 mm/s and the cell scanning speed was 250 μm/s.
# The width of each channel is 100 μm, the thickness is 50 μm, and the interchannel spacing is 25 μm. The procedure used for fabricating the microchannels and for patch clamping are identical to that described in Example 2 (see above). The patch clamped cell used was a PC-12 cell, which was placed between 10 to 20 micrometers away from the outlets of the microchannels. Channels 1, 3, 5 and 7 were filled with PBS buffer, while channels 2, 4 and 6 were filled with acetylcholine. The flow rate of the fluid streams was 6.8 mm/s.
# The channel structure and experimental setup used in Example 3 can be used to carry out dose-response measurements, in which the concentrations of the ligands in each of the ligand streams differ by predetermined amounts. […] In this 7-channel structure, channels 1, 3, 5 and 7 were filled with PBS buffer, whereas channels 2, 4, and 6 were filled with 1 μM, 12 μM, and 200 μM nicotine, respectively. The flow rate used was 3.24 mm/s and the cell-scanning speed was 250 μm/s. The patch-clamped cell was placed between 10 to 20 μm away from the outlet of the microchannel.
smiles,measurement,setting,value
CN1CCCC1c1cccnc1 (stereo not drawn) [nicotine],Whole-cell current response,1 μM nicotine,barely discernible
same,Whole-cell current peak,12 μM nicotine,detected with good signal-to-noise ratio
same,Current peak at 200 μM relative to peak for 12 μM,200 μM vs 12 μM nicotine,15 to 20 times
